Biological target: Cannabinoid receptor 1 (Homo sapiens, UniProt P21554)
Assay: Displacement of [3H]-CP-55940 from human CB1 receptor transfected in CHOK1 cells after 90 mins by liquid scintillation counting analysis
Type: cell-based, CHO-K1

Cannabinoid receptor 1, sequence (P21554 whole entry): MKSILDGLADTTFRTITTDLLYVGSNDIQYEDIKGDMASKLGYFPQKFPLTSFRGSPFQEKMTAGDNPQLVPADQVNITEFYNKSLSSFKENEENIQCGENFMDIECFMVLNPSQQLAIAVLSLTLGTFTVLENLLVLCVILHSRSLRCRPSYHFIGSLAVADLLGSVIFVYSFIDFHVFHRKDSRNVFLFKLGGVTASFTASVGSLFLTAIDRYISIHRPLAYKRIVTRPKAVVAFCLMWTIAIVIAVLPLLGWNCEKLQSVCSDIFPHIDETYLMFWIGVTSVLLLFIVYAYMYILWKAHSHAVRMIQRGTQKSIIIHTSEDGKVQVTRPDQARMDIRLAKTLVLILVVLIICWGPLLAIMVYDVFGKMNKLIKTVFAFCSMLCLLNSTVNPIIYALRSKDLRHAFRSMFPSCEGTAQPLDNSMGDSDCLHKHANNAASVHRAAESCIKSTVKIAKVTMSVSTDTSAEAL

Question: How did the Ki turn out when `CCCCCn1cc(C(=O)NC23CC4CC(CC(C4)C2)C3)c(=O)c2cccc(OC)c21` was run?
Answer: Its Ki is over 10 µM.

Question: Which Ki does the source give for `COc1cccc2c(=O)c(C(=O)NC(C)(C)C)cn(CCCF)c12` here?
Answer: Its Ki is over 10 µM.

Question: How did the Ki turn out when `CCCCn1cc(C(=O)NCC2CC2)c(=O)c2cccc(OC)c21` was run?
Answer: The Ki was over 10 µM.

Question: Which Ki does the source give for `CCOCCn1cc(C(=O)NCCc2ccccc2)c(=O)c2cccc(OC)c21` here?
Answer: The Ki was over 10 µM.

Question: For `CCCCn1cc(C(=O)NC2CCCC2)c(=O)c2cccc(OC)c21`, which Ki is on record?
Answer: The Ki was over 10 µM.

From ChEMBL document CHEMBL3407340, “Synthesis, radiolabeling and evaluation of novel 4-oxo-quinoline derivatives as PET tracers for imaging cannabinoid type 2 receptor” (Eur J Med Chem, 2015)
